US8993566B2, “Quinoline compound composing 1,2,4-triazine-dione and use thereof” (Wuhan Shengyun Biopharma Co., Ltd., priority 2012, dated 2015)

Legend:
[1] = test system: human nonsmall-cell lung cancer cell H460; assay: In vitro anti-tumor cell activity (MTT), H460; format: cell-based; conditions: H460 cells, MTT, 72 h, Bliss method
Protocol: (§1) The digested cell solution was poured into a centrifuge tube, to which a culture media was added to stop the digestion. The centrifuge tube was centrifuged at 800 r/min for 10 min, the supernatant was removed gently and then 5 mL of the culture media was added. The cells were pipetted and mixed homogeneously. 10 μL cell suspension was taken into a cell counting plate for counting, wherein the cell concentration was adjusted to 10^4 cells/well. To each well of a 96-well plate, except for A1 well as blank control, was added 100 μL of the cell suspension. The 96-well plate was placed in an incubator and cultivated for 24 h. […] The 96-well plate was placed in an incubator and cultivated for 72 h. (3) The culture media containing the compounds in the 96-well plate was removed, and the cells were washed with phosphate buffered solution (PBS) twice. To each well was added 100 μL MTT (tetrazole) (0.5 mg/mL), after placing the plate in an incubator to incubate for 4 h, the MTT solution was removed and 100 μL dimethyl sulfoxide was added. The reaction product of survival cells with MTT, i.e. formazan, was dissolved completely by oscillation on a magnetic oscillator, and then placed into a microplate reader to measure the results, and the IC50 values of compounds could be deduced by Bliss method.

[2] = test system: human colon cancer cell HT-29; assay: In vitro anti-tumor cell activity (MTT), HT-29; format: cell-based; conditions: HT-29 cells, MTT, 72 h, Bliss method
Protocol: as §1

[3] = test system: human gastric cancer cell MKN-45; assay: In vitro anti-tumor cell activity (MTT), MKN-45; format: cell-based; conditions: MKN-45 cells, MTT, 72 h, Bliss method
Protocol: as §1

[4] = test system: human hepatoma carcinoma cell line SMMC-7721; assay: In vitro anti-tumor cell activity (MTT), SMMC-7721; format: cell-based; conditions: SMMC-7721 cells, MTT, 72 h, Bliss method
Protocol: as §1

[5] = biological target: T1, c-Met kinase (His-tagged recombinant human Met (amino acids 974-end)) (Homo sapiens, UniProt P08581); assay: c-Met Enzyme Activity Inhibition Assay (ELISA); format: biochemical; conditions: 50 pM c-Met, 5 μM ATP, room temperature 20 min
T1 construct: His-tagged recombinant human Met (amino acids 974-end); His
Protocol: c-Met Enzyme Activity Inhibition Assay
The assay for the determination of c-Met kinase activity is based on an enzyme linked immunosorbant assay (ELISA). A compound of Formula I, 50 pM c-Met (His-tagged recombinant human Met (amino acids 974-end), expressed by baculovirus), and 5 μM ATP in an assay buffer (25 mM MOPS, pH 7.4, 5 mM MgCl2, […], 100 μM sodium orthovanadate, 0.01% Triton X-100, 1 mM DTT, final DMSO concentration 1% (v/v)) were incubated on a plate coated with 0.25 mg/mL POT at room temperature for 20 min. The reaction mixture was removed by washing and the phosphorylated polymer substrate was detected with 0.2 μg/mL phosphotyrosine specific monoclonal antibody (PY20) conjugated to horseradish peroxidase (HRP). After the addition of 1M phosphoric acid to stop the development, the chromogenic substrate (TMB) color was quantitated by spectrophotometry at 450 nm.

T1 sequence (P08581 956-1390): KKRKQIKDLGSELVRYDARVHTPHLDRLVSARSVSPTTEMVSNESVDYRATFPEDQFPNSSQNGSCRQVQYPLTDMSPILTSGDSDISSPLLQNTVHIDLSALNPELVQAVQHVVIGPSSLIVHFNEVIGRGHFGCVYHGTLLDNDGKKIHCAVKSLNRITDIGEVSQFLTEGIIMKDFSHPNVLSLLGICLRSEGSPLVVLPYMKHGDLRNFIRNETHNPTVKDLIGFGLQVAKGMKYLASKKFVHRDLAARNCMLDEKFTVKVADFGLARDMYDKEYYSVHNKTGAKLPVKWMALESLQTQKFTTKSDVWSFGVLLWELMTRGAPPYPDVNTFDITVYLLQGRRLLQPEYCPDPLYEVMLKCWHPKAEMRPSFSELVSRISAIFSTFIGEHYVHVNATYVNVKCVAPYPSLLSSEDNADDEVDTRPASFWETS

## N-[3-fluoro-4-[6-methoxy-7-[3-(4-methyl-1-piperazinyl)propyloxy]quinolin]-4-oxy]phenyl]-2-(3,4-difluorophenyl)-4-benzyl]-3,5-dicarbonyl-2,3,4,5-tetrahydro-1,2,4-triazine-6-carboxamide [Example 45]
[1]
  H460 IC50: 0.34 µg/mL
[2]
  HT-29 IC50: 0.28 µg/mL
[3]
  MKN-45 IC50: 0.05 µg/mL
[4]
  SMMC-7721 IC50: 1.1 µg/mL
[5]
  IC50 for inhibiting c-Met kinase: 2.72 µg/mL

## N-[3-fluoro-4-[6-methoxy-7-[3-(4-methyl-1-piperazinyl)propyloxy]quinolin]-4-oxy]phenyl]-2-(3-trifluoromethylphenyl)-4-benzyl-3,5-dicarbonyl-2,3,4,5-tetrahydro-1,2,4-triazine-6-carboxamide [Example 47]
[1]
  H460 IC50: 1.1 µg/mL
[2]
  HT-29 IC50: 0.09 µg/mL
[3]
  MKN-45 IC50: 0.4 µg/mL
[4]
  SMMC-7721 IC50: 3.7 µg/mL
[5]
  IC50 for inhibiting c-Met kinase: 5.92 µg/mL

## N-[3-fluoro-4-[6-methoxy-7-[3-(4-methyl-1-piperidinyl)propyloxy]quinolin-4-oxy]phenyl]-2-(3-trifluoromethylphenyl)-4-methyl-3,5-dicarbonyl-2,3,4,5-tetrahydro-1,2,4-triazine-6-carboxamide [Example 24]
[1]
  H460 IC50: 0.28 µg/mL
[2]
  HT-29 IC50: 0.5 µg/mL
[3]
  MKN-45 IC50: 0.093 µg/mL
[4]
  SMMC-7721 IC50: 0.61 µg/mL
[5]
  IC50 for inhibiting c-Met kinase: 0.18 µg/mL

## N-[3-fluoro-4-[6-methoxy-7-[3-(4-methyl-1-piperidinyl)propyloxy]quinolin-4-oxy]phenyl]-2-(4-methylphenyl)-4-methyl-3,5-dicarbonyl-2,3,4,5-tetrahydro-1,2,4-triazine-6-carboxamide [Example 14]
[1]
  H460 IC50: 0.15 µg/mL
[2]
  HT-29 IC50: 0.11 µg/mL
[3]
  MKN-45 IC50: 2.1 µg/mL
[4]
  SMMC-7721 IC50: 0.88 µg/mL
[5]
  IC50 for inhibiting c-Met kinase: 0.088 µg/mL

## N-[3-fluoro-4-[6-methoxy-7-[3-(4-methyl-1-piperidinyl)propyloxy]quinolin-4-oxy]phenyl]-2-phenyl-4-methyl-3,5-dioxo-2,3,4,5-tetrahydro-1,2,4-triazine-6-carboxamide [Example 4]
[1]
  H460 IC50: 0.087 µg/mL
[2]
  HT-29 IC50: 0.13 µg/mL
[3]
  MKN-45 IC50: 0.053 µg/mL
[4]
  SMMC-7721 IC50: 0.071 µg/mL
[5]
  IC50 for inhibiting c-Met kinase: 0.63 µg/mL

## N-[3-fluoro-4-[6-methoxy-7-[3-(4-morpholinyl)propyloxy]quinolin-4-oxy]phenyl]-2-(2-fluorophenyl)-4-methyl-3,5-dicarbonyl-2,3,4,5-tetrahydro-1,2,4-triazine-6-carboxamide [Example 23]
[1]
  H460 IC50: 0.57 µg/mL
[2]
  HT-29 IC50: 0.35 µg/mL
[3]
  MKN-45 IC50: 0.0028 µg/mL
[4]
  SMMC-7721 IC50: 0.44 µg/mL
[5]
  IC50 for inhibiting c-Met kinase: 0.82 µg/mL

## N-[3-fluoro-4-[7-methoxy-6-[3-(1-piperidinyl)propyloxy]quinolin-4-oxy]phenyl]-2-(2-trifluoromethylphenyl)-4-allyl-3,5-dicarbonyl-2,3,4,5-tetrahydro-1,2,4-triazine-6-carboxamide [Example 37]
[1]
  H460 IC50: 1.7 µg/mL
[2]
  HT-29 IC50: 0.88 µg/mL
[3]
  MKN-45 IC50: 0.12 µg/mL
[4]
  SMMC-7721 IC50: 2.3 µg/mL
[5]
  IC50 for inhibiting c-Met kinase: 3.7 µg/mL

## N-[3-fluoro-4-[7-methoxy-6-[3-(1-pyrrolidyl)propyloxy]quinolin-4-oxy]phenyl]-2-(2-trifluoromethylphenyl)-4-butyl-3,5-dicarbonyl-2,3,4,5-tetrahydro-1,2,4-triazine-6-carboxamide [Example 35]
[1]
  H460 IC50: 0.12 µg/mL
[2]
  HT-29 IC50: 0.079 µg/mL
[3]
  MKN-45 IC50: 0.005 µg/mL
[4]
  SMMC-7721 IC50: 0.31 µg/mL
[5]
  IC50 for inhibiting c-Met kinase: 0.03 µg/mL

## N-[3-fluoro-4-[7-methoxy-6-[3-(1-pyrrolidyl)propyloxy]quinolin-4-oxy]phenyl]-2-(3-fluorophenyl)-4-butyl-3,5-dioxo-2,3,4,5-tetrahydro-1,2,4-triazine-6-carboxamide [Example 30]
[1]
  H460 IC50: 0.18 µg/mL
[2]
  HT-29 IC50: 0.11 µg/mL
[3]
  MKN-45 IC50: 0.043 µg/mL
[4]
  SMMC-7721 IC50: 0.46 µg/mL
[5]
  IC50 for inhibiting c-Met kinase: 0.058 µg/mL

## N-[3-fluoro-4-[7-methoxy-6-[3-(4-methyl-1-piperidinyl)propyloxy]quinolin-4-oxy]phenyl]-2-(2-trifluoromethylphenyl)-4-allyl-3,5-dioxo-2,3,4,5-tetrahydro-1,2,4-triazine-6-carboxamide [Example 36]
[1]
  H460 IC50: 1.7 µg/mL
[2]
  HT-29 IC50: 0.43 µg/mL
[3]
  MKN-45 IC50: 0.21 µg/mL
[4]
  SMMC-7721 IC50: 2.4 µg/mL
[5]
  IC50 for inhibiting c-Met kinase: 1.1 µg/mL

## N-[3-fluoro-4-[7-methoxy-6-[3-(4-methyl-1-piperidinyl)propyloxy]quinolin-4-oxy]phenyl]-2-(2-trifluoromethylphenyl)-4-butyl-3,5-dicarbonyl-2,3,4,5-tetrahydro-1,2,4-triazine-6-carboxamide [Example 33]
[1]
  H460 IC50: 0.15 µg/mL
[2]
  HT-29 IC50: 0.18 µg/mL
[3]
  MKN-45 IC50: 0.09 µg/mL
[4]
  SMMC-7721 IC50: 0.43 µg/mL
[5]
  IC50 for inhibiting c-Met kinase: 0.27 µg/mL

## N-[3-fluoro-4-[7-methoxy-6-[3-(4-methyl-1-piperidinyl)propyloxy]quinolin-4-oxy]phenyl]-2-phenyl-4-butyl-3,5-dioxo-2,3,4,5-tetrahydro-1,2,4-triazine-6-carboxamide [Example 28]
[1]
  H460 IC50: 0.25 µg/mL
[2]
  HT-29 IC50: 0.31 µg/mL
[3]
  MKN-45 IC50: 0.077 µg/mL
[4]
  SMMC-7721 IC50: 0.44 µg/mL
[5]
  IC50 for inhibiting c-Met kinase: 0.31 µg/mL

## N-[3-fluoro-4-[7-methoxy-6-[3-(4-morpholinyl)propyloxy]quinolin-4-oxy]phenyl]-2-(2-fluorophenyl)-4-butyl-3,5-dioxo-2,3,4,5-tetrahydro-1,2,4-triazine-6-carboxamide [Example 29]
[1]
  H460 IC50: 0.0056 µg/mL
[2]
  HT-29 IC50: 0.12 µg/mL
[3]
  MKN-45 IC50: 0.0009 µg/mL
[4]
  SMMC-7721 IC50: 0.014 µg/mL
[5]
  IC50 for inhibiting c-Met kinase: 0.61 µg/mL

## N-[3-fluoro-4-[7-methoxy-6-[3-(4-morpholinyl)propyloxy]quinolin-4-oxy]phenyl]-2-(3-trifluoromethylphenyl)-4-butyl-3,5-dicarbonyl-2,3,4,5-tetrahydro-1,2,4-triazine-6-carboxamide [Example 34]
[1]
  H460 IC50: 0.028 µg/mL
[2]
  HT-29 IC50: 0.11 µg/mL
[3]
  MKN-45 IC50: 0.013 µg/mL
[4]
  SMMC-7721 IC50: 0.18 µg/mL
[5]
  IC50 for inhibiting c-Met kinase: 0.017 µg/mL
